Source: patent publication US9266830B2, “Pesticidal arylpyrrolidines” (Bayer Intellectual Property GmbH, priority 2007, dated 2016)

Legend:
Format in all cases: in vivo
[1] = system: Boophilus microplus; assay: Boophilus microplus test (injection); conditions: application rate 20 μg/animal, adult engorged females, after 7 days
Method: (§1) Solvent: dimethyl sulfoxide
To produce a suitable preparation of active compound, 10 mg of active compound are dissolved in 0.5 ml solvent, and the concentrate is diluted with solvent to the desired concentration. Five adult engorged female ticks (Boophilus microplus) are injected with compound solution into the abdomen. Ticks are transferred into replica plates and incubated in a climate chamber for a period of time. Egg deposition of fertile eggs is monitored. After 7 days mortality in % is determined 100% means that all eggs are infertile; 0% means that all eggs are fertile.

[2] = system: Boophilus microplus; assay: Boophilus microplus (dip); conditions: application rate 100 ppm, adult engorged females, after 7 days
Method: as §1
To produce a suitable preparation of active compound, 10 mg of active compound are dissolved in 0.5 ml solvent, and the concentrate is diluted with water to the desired concentration. Eight to ten adult engorged female Boophilus microplus ticks are placed in perforated plastic beakers and immersed in aqueous compound solution for one minute. Ticks are transferred to a filter paper in a plastic tray. Egg deposition of fertile eggs is monitored after. After 7 days mortality in % is determined 100% means that all the ticks have been killed; 0% means that none of the ticks have been killed.

[3] = system: Lucilia cuprina larvae; assay: Lucilia cuprina test (larvae in minced horse meat); conditions: application rate 100 ppm, larvae, after 2 days
Method: as §1
To produce a suitable preparation of active compound, 10 mg of active compound are dissolved in 0.5 ml solvent, and the concentrate is diluted with water to the desired concentration. Approximately 20-30 (Lucilia cuprina larvae) are transferred into a test tube containing 1 cm^3 of minced horse meat and 0.5 ml aqueous dilution of test compound. After 2 days mortality in % is determined 100% means that all the larvae have been killed; 0% means that none of the larvae have been killed.

[4] = system: Amblyomma hebraeum; assay: Amblyomma hebraeum test (AMBYHE), nymph immersion; conditions: for activity (mortality in %): application rate 100 ppm, nymphs, after 42 days
Method: as §1
To produce a suitable preparation of active compound, 10 mg of active compound are dissolved in 0.5 ml solvent, and the concentrate is diluted with water to the desired concentration. Nymphs of the tick Amblyomma hebraeum are placed in perforated plastic beakers and immersed in aqueous compound solution for one minute. Ticks are transferred to a filter paper in a Petri dish and incubated in a climate chamber for 42 days.
After 42 days mortality in % is determined 100% means that all the ticks have been killed; 0% means that none of the ticks have been killed.

Row | Structure (SMILES) | activity (100% means that all eggs are infertile) [1] [%] | other results
1 | CC(C)CC(=O)NCc1ccc(N2CCC(c3cc(Cl)cc(Cl)c3)(C(F)(F)F)C2)cc1Cl (stereo not shown) [1-7] | 100 | activity (mortality in %) [2]: 80%
2 | CN(Cc1ccc(N2CCC(c3cc(Cl)cc(Cl)c3)(C(F)(F)F)C2)cc1Cl)C(=O)C1CC1 (stereo not shown) [1-74] | 100 | activity (mortality in %) [3]: 90%
3 | CCNC(=O)NCc1ccc(N2CCC(c3cc(Cl)cc(Cl)c3)(C(F)(F)F)C2)cc1Cl (stereo not shown) [1-77] | 100 | activity (mortality in %) [2]: 80%
4 | O=C(NCc1ccc(N2CCC(c3cc(Cl)cc(Cl)c3)(C(F)(F)F)C2)cc1Cl)NCC(F)(F)F (stereo not shown) [1-78] | 100 | activity (mortality in %) [2]: 80%
5 | CCCNC(=O)NCc1ccc(N2CCC(c3cc(Cl)cc(Cl)c3)(C(F)(F)F)C2)cc1Cl (stereo not shown) [1-79] | 100 | activity (mortality in %) [3]: 90%
6 | C=CCNC(=O)NCc1ccc(N2CCC(c3cc(Cl)cc(Cl)c3)(C(F)(F)F)C2)cc1Cl (stereo not shown) [1-87] | 100 | activity (mortality in %) [3]: 80%
7 | COCCNC(=O)NCc1ccc(N2CCC(c3cc(Cl)cc(Cl)c3)(C(F)(F)F)C2)cc1Cl (stereo not shown) [1-97] | 100 | activity (mortality in %) [3]: 90%
8 | CN(C)C(=O)NCc1ccc(N2CCC(c3cc(Cl)cc(Cl)c3)(C(F)(F)F)C2)cc1Cl (stereo not shown) [1-118] | 100 | activity (mortality in %) [4]: 90%
9 | O=C(CC(F)(F)F)NCc1ccc(N2CCC(c3cc(Cl)cc(Cl)c3)(C(F)(F)F)C2)cc1C(F)(F)F (stereo not shown) [1-162] | 100 | activity (mortality in %) [2]: 95%
10 | O=C(NCc1ccc(N2CCC(c3cc(Cl)cc(Cl)c3)(C(F)(F)F)C2)cc1C(F)(F)F)C(F)F (stereo not shown) [1-164] | 100 | activity (mortality in %) [2]: 95%
11 | CC=CC(=O)NCc1ccc(N2CCC(c3cc(Cl)cc(Cl)c3)(C(F)(F)F)C2)cc1C(F)(F)F (stereo not shown) [1-174] | 100 | activity (mortality in %) [2]: 80%
12 | C=CCNC(=O)NCc1ccc(N2CCC(c3cc(Cl)cc(Cl)c3)(C(F)(F)F)C2)cc1C(F)(F)F (stereo not shown) [1-230] | 100 | activity (mortality in %) [4]: 80%
13 | COCCNC(=O)NCc1ccc(N2CCC(c3cc(Cl)cc(Cl)c3)(C(F)(F)F)C2)cc1C(F)(F)F (stereo not shown) [1-243] | 100 | activity (mortality in %) [3]: 95%
14 | CSCCNC(=O)NCc1ccc(N2CCC(c3cc(Cl)cc(Cl)c3)(C(F)(F)F)C2)cc1C(F)(F)F (stereo not shown) [1-244] | 100 | activity (mortality in %) [3]: 80%
15 | O=C(NCc1ccc(N2CCC(c3cc(Cl)cc(Cl)c3)(C(F)(F)F)C2)cc1C(F)(F)F)N1CCOCC1 (stereo not shown) [1-257] | 100 | activity (mortality in %) [3]: 95%
16 | O=C(CCCl)NCc1ccc(N2CCC(c3cc(C(F)(F)F)cc(C(F)(F)F)c3)(C(F)(F)F)C2)cc1C(F)(F)F (stereo not shown) [1-297] | 100 | activity (mortality in %) [4]: 90%
17 | CNC(=O)NCc1ccc(N2CCC(c3cc(C(F)(F)F)cc(C(F)(F)F)c3)(C(F)(F)F)C2)cc1C(F)(F)F (stereo not shown) [1-301] | 100 | activity (mortality in %) [2]: 80%
18 | CCNC(=O)NCc1ccc(N2CCC(c3cc(C(F)(F)F)cc(C(F)(F)F)c3)(C(F)(F)F)C2)cc1C(F)(F)F (stereo not shown) [1-302] | 100 | activity (mortality in %) [2]: 90%
19 | O=C(NCc1ccc(N2CCC(c3cc(C(F)(F)F)cc(C(F)(F)F)c3)(C(F)(F)F)C2)cc1C(F)(F)F)NC1CC1 (stereo not shown) [1-305] | 100 | activity (mortality in %) [2]: 80%; activity (mortality in %) [4]: 90%
20 | NCc1ccc(N2CCC(c3cc(C(F)(F)F)cc(C(F)(F)F)c3)(C(F)(F)F)C2)cc1Cl (stereo not shown) [1-306] | – | activity (mortality in %) [3]: 90%
21 | CCC(=O)NCc1ccc(N2CCC(c3cc(C(F)(F)F)cc(C(F)(F)F)c3)(C(F)(F)F)C2)cc1Cl (stereo not shown) [1-307] | 100 | activity (mortality in %) [4]: 80%
22 | O=C(NCc1ccc(N2CCC(c3cc(C(F)(F)F)cc(C(F)(F)F)c3)(C(F)(F)F)C2)cc1Br)C1CC1 (stereo not shown) [1-313] | 100 | activity (mortality in %) [4]: 95%
23 | O=S(=O)(CC(F)(F)F)NCc1ccc(N2CCC(c3cc(Cl)c(Cl)c(Cl)c3)(C(F)(F)F)C2)cc1C(F)(F)F (stereo not shown) [1-334] | 100 | activity (mortality in %) [3]: 90%
24 | NCc1ccc(N2CCC(c3cc(Cl)c(Cl)c(Cl)c3)(C(F)(F)F)C2)cc1Cl (stereo not shown) [1-336] | 100 | activity (mortality in %) [3]: 90%

Row | Structure (SMILES) | activity (100% means that all eggs are infertile) [1] [%] | other results
25 | O=C(CC(F)(F)F)NCc1ccc(N2CCC(c3cc(Cl)c(Cl)c(Cl)c3)(C(F)(F)F)C2)cc1Cl (stereo not shown) [1-340] | 100 | activity (mortality in %) [4]: 80%
26 | O=C(CC(F)(F)F)NCc1ccc(N2CCC(c3cc(Cl)c(Cl)c(Cl)c3)(C(F)(F)F)C2)cc1Br (stereo not shown) [1-347] | 100 | activity (mortality in %) [4]: 90%
27 | O=C(CC(F)(F)F)NCc1ccc(N2CCC(c3cc(C(F)(F)F)cc(C(F)(F)F)c3)(C(F)(F)F)C2)nc1C(F)(F)F (stereo not shown) [1-404] | 100 | activity (mortality in %) [4]: 85%
28 | CSCCC(=O)NCc1ccc(N2CCC(c3cc(Cl)cc(Cl)c3)(C(F)(F)F)C2)cc1Cl (stereo not shown) [1-467] | 100 | activity (mortality in %) [2]: 90%; activity (mortality in %) [4]: 90%
29 | CSCCC(=O)NCc1ccc(N2CCC(c3cc(Cl)cc(Cl)c3)(C(F)(F)F)C2)cc1C(F)(F)F (stereo not shown) [1-509] | 100 | activity (mortality in %) [4]: 90%
30 | O=C(Cn1cncn1)NCc1ccc(N2CCC(c3cc(Cl)cc(Cl)c3)(C(F)(F)F)C2)cc1C(F)(F)F (stereo not shown) [1-558] | 100 | activity (mortality in %) [2]: 80%
31 | CC(C)(C)OC(=O)NCc1ccc(N2CCC(c3cc(Cl)c(Cl)c(Cl)c3)(C(F)(F)F)C2)cc1Cl (stereo not shown) [1-694] | 100 | activity (mortality in %) [3]: 80%
32 | C=CCS(=O)(=O)CC(=O)NCc1ccc(N2CCC(c3cc(Cl)c(Cl)c(Cl)c3)(C(F)(F)F)C2)cc1C(F)(F)F (stereo not shown) [1-734] | 100 | activity (mortality in %) [4]: 90%
33 | Cc1nc(N2CCC(c3cc(Cl)cc(Cl)c3)(C(F)(F)F)C2)ncc1C(=O)NCC(F)(F)F (stereo not shown) [2-69] | 100 | activity (mortality in %) [3]: 90%
34 | CCC(=O)NCc1ccc(N2CCC(c3cc(Cl)cc(Cl)c3)(C(F)(F)F)C2)cc1Br (stereo not shown) [3-5 according to WO2008/128711, reference compound] | – | Activity at 0.8 ppm ([4]; 0.8 ppm, comparison with WO2008/128711): 10%; Activity at 4 ppm ([4]; 4 ppm, comparison with WO2008/128711): 70%
35 | CCNC(=O)NCc1cnc(N2CCC(c3cc(C(F)(F)F)cc(C(F)(F)F)c3)(C(F)(F)F)C2)nc1C(F)(F)F (stereo not shown) [3-151] | 100 | –
36 | O=C(NCC(F)(F)F)c1sc(N2CCC(c3cc(Cl)cc(Cl)c3)(C(F)(F)F)C2)nc1C(F)(F)F (stereo not shown) [4-8] | 100 | –
37 | O=C(NCc1ccccn1)c1sc(N2CCC(c3cc(Cl)cc(Cl)c3)(C(F)(F)F)C2)nc1C(F)(F)F (stereo not shown) [4-9] | – | activity (mortality in %) [3]: 80%
38 | O=C(NCc1ccccn1)c1sc(N2CCC(c3cc(Cl)c(Cl)c(Cl)c3)(C(F)(F)F)C2)nc1C(F)(F)F (stereo not shown) [4-22] | 100 | –
39 | O=C(NCC(F)(F)F)c1sc(N2CCC(c3cc(C(F)(F)F)cc(C(F)(F)F)c3)(C(F)(F)F)C2)nc1C(F)(F)F (stereo not shown) [4-34] | 100 | –
40 | O=C(NCc1ccccn1)c1sc(N2CCC(c3cc(C(F)(F)F)cc(C(F)(F)F)c3)(C(F)(F)F)C2)nc1C(F)(F)F (stereo not shown) [4-35] | 100 | –
41 | O=C(NCc1sc(N2CCC(c3cc(Cl)c(Cl)c(Cl)c3)(C(F)(F)F)C2)nc1C(F)(F)F)C1CC1 (stereo not shown) [5-143] | 100 | –
42 | O=C(CC(F)(F)F)NCc1sc(N2CCC(c3cc(Cl)c(Cl)c(Cl)c3)(C(F)(F)F)C2)nc1C(F)(F)F (stereo not shown) [5-144] | 100 | –
43 | CCC(=O)NC1CCc2cc(N3CCC(c4cc(Cl)cc(Cl)c4)(C(F)(F)F)C3)ccc21 (stereo not shown) [6-4] | 100 | –
44 | CC(=O)NC1CCc2cc(N3CCC(c4cc(Cl)c(Cl)c(Cl)c4)(C(F)(F)F)C3)ccc21 (stereo not shown) [6-267] | 100 | –
45 | CC(C)(C)OC(=O)NC1CCc2cc(N3CCC(c4cc(Cl)c(Cl)c(Cl)c4)(C(F)(F)F)C3)ccc21 (stereo not shown) [6-802] | 100 | –
46 | N#Cc1ccc(N2CCC(c3cc(Cl)c(Cl)c(Cl)c3)(C(F)(F)F)C2)cc1C(F)(F)F (stereo not shown) [7-12] | 100 | –
47 | N#Cc1ccc(N2CCC(c3cc(Cl)c(Cl)c(Cl)c3)(C(F)(F)F)C2)cc1Cl (stereo not shown) [7-13] | 100 | –
